Data taken from patent publication EP4763847A1 (Jiangsu Yahong Meditech Co., Ltd., priority 2023, dated 2025).

Legend:
HCT116 MTAP KO = assay: Cell proliferation inhibition (CellTiter Glo), HCT116 MTAP KO cells; type: cell-based; conditions: cultured 6 days with compound
Description: (§1) Test Example 2: Test of cell proliferation inhibition activity of the compounds
(§2) HCT116-WT (ATCC, CCL-247) and HCT116 MTAP KO (Cobioer Nanjing, CBP75002) cells were seeded into white low-transparency 96-well sterile cell culture plates at a density of 250 cells per well, respectively. The culture medium was McCoy's 5A Medium + 10% FBS. The plates were incubated overnight at 37°C with 5% CO2. The cells were treated with compounds gradiently with an initial concentration of 10000 nM, 4-fold dilution, and 8 concentration points. The last two columns were control wells with only DMSO added. The treated cells were continued to be cultured for 6 days. On the seventh day, 50 µL of CellTiter Glo® reagent was added to each well. After reacting on a shaker at room temperature for 10 minutes, the chemiluminescence signal in the plate was detected using the chemiluminescence detection method on a BIOTEK H1 multi-mode plate reader. […] Table 2: IC50 values of compounds for HCT116 MTAP KO/WT cell growth inhibition

PRMT5-MTA = PRMT5-MTA (Homo sapiens, UniProt O14744); assay: biochemical; conditions: IC50 (nM), PRMT5+MTA enzyme activity inhibition; PRMT5/MET50 protein 1 nM, 5'-deoxy-5'-adenosine 1 µM, SAM 2.5 µM, Histone H4 substrate 5 nM
Description: The enzymatic inhibition activity of the compounds against PRMT5-MTA was detected using the AlphaScreen method. A 1× methyltransferase assay buffer IV (Signalchem) was prepared as a dilution solution for each component of the enzymatic reaction. […] The test compounds were added to all wells except the control wells in a 3-fold dilution series of 10 concentration points starting from 1000 nM using a Tecan D300e. After centrifugation at 1000 rpm for 1 minute in a centrifuge, the plate was incubated at 23°C for 15 minutes. Histone H4 substrate at a final concentration of 5 nM was added to the plate at 4 µL per well. After centrifugation at 1000 rpm for 1 minute in a centrifuge, the plate was reacted in an incubator at 23°C for 45 minutes. Anti-Histone H4 (symmetric dimethyl R3) antibody (Abcam) was pre-incubated with 50 µg/mL AlphaScreen Protein A Acceptor beads (PerkinElmer) at room temperature for 10 minutes, and then added to the plate in a volume of 10 µL per well, followed by reaction at room temperature for 1 hour. 10 µL of 50 µg/mL AlphaScreen Streptavidin Donor beads (PerkinElmer) were added to each well, and reacted at room temperature for 1 hour. The signal values in the plate were detected using the Alpha method on an Envision multi-mode plate reader. The IC50 values of the compounds for PRMT5/MET50 enzyme activity inhibition were calculated in Xlfit 5.0 software.

HCT116-WT = assay: Cell proliferation inhibition (CellTiter Glo), HCT116-WT cells; type: cell-based; conditions: cultured 6 days with compound
Description: as §1, §2

PRMT5-MTA, sequence (O14744 whole entry): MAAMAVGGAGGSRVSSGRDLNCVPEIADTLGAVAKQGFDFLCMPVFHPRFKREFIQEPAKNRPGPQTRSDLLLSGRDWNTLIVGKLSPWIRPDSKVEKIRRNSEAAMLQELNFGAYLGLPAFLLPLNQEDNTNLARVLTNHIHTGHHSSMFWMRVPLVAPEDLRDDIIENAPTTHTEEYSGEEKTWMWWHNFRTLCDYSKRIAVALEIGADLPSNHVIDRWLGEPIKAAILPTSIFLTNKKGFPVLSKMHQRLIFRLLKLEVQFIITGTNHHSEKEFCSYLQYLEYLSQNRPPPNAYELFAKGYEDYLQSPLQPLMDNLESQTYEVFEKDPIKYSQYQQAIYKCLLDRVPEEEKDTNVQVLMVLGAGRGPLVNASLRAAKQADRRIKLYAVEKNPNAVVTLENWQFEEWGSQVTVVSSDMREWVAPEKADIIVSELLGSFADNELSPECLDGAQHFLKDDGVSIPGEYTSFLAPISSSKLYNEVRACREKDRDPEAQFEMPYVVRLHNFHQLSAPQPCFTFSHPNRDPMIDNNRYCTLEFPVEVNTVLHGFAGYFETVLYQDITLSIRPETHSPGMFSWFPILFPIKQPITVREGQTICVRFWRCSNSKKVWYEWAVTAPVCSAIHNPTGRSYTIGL
PRMT5-MTA, sequence (Q9BQA1 whole entry partner): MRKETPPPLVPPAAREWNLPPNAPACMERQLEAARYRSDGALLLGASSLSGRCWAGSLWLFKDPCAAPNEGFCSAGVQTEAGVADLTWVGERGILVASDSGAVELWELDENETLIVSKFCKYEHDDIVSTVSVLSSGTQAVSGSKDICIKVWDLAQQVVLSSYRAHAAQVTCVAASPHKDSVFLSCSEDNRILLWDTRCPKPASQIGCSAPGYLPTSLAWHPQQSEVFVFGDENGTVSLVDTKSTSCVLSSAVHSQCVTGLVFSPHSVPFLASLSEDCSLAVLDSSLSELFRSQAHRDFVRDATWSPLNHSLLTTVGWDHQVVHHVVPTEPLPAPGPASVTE

Structure (SMILES) | IC50 (HCT116 MTAP KO; Homo sapiens, HCT-116, 144 h) [µM] | IC50 (PRMT5-MTA) [nM] | IC50 (HCT116-WT; 144 h) [µM] | IC50 (HCT116 MTAP KO) [µM] | IC50 (HCT116-WT) [µM]
CNC(N)=Nc1ccc(C(=O)N(Cc2ccc(C(F)(F)F)cn2)C(C)c2ncccc2F)cn1 (racemic) [Compound 58] | 0.034 | 0.4 | 0.971 | – | –
CN/C(N)=N\c1ccc(C(=O)N(Cc2ccc(C(F)(F)F)cn2)C(C)c2ncccc2F)cn1 (single isomer, unassigned) [Compound 65] | 0.03 | 5.4 | 0.569 | – | –
CN/C(N)=N\c1ccc(C(=O)N(Cc2ccc(C(F)(F)F)cn2)C(C)c2ncccc2F)cn1 (single isomer, unassigned) [Compound 66] | – | 7.5 | – | – | –
CNC(N)=Nc1ccc(C(=O)N(Cc2ccc(C(F)(F)F)cn2)C(C)c2ncccn2)cn1 (stereo not shown) [Compound 1] | 0.15 | 1.7 | 2.25 | – | –
COCCNC(N)=Nc1ccc(C(=O)N(Cc2ccc(C(F)(F)F)cn2)C(C)c2ncccn2)cn1 (stereo not shown) [Compound 3] | – | 2.9 | – | – | –
CNC(N)=Nc1ccc(C(=O)N(Cc2ccc(C(F)(F)F)cn2)C(C)c2ncccn2)cc1 (stereo not shown) [Compound 4] | – | 1.6 | – | – | –
CC(c1ncccn1)N(Cc1ccc(C(F)(F)F)cn1)C(=O)c1ccc(N=C(N)N)nc1 (stereo not shown) [Compound 7] | 0.422 | 2.1 | 1.52 | – | –
COC(=O)CNC(N)=Nc1ccc(C(=O)N(Cc2ccc(C(F)(F)F)cn2)C(C)c2ncccn2)cn1 (stereo not shown) [Compound 8] | – | 5.5 | – | – | –
CC(c1ncccn1)N(Cc1ccc(C(F)(F)F)cn1)C(=O)c1ccc(N=C(N)Nc2ccccc2)nc1 (stereo not shown) [Compound 9] | – | 7.9 | – | – | –
CC(c1ncccn1)N(Cc1ccc(C(F)(F)F)cn1)C(=O)c1ccc(N=C(N)NCCN(C)C)nc1 (stereo not shown) [Compound 10] | – | 1.3 | – | – | –
CC(c1ncccn1)N(Cc1ccc(C(F)(F)F)cn1)C(=O)c1ccc(N=C(N)NO)nc1 (stereo not shown) [Compound 12] | 0.055 | 3 | 0.21 | – | –
CCNC(N)=Nc1ccc(C(=O)N(Cc2ccc(C(F)(F)F)cn2)C(C)c2ncccn2)cn1 (stereo not shown) [Compound 14] | 0.707 | 1.3 | 3.55 | – | –
CC(C)NC(N)=Nc1ccc(C(=O)N(Cc2ccc(C(F)(F)F)cn2)C(C)c2ncccn2)cn1 (stereo not shown) [Compound 15] | – | 2.3 | – | – | –
CC(c1ncccn1)N(Cc1ccc(C(F)(F)F)cn1)C(=O)c1ccc(N=C(N)NCC(=O)O)nc1 (stereo not shown) [Compound 18] | 0.868 | – | 2.03 | – | –
CC(c1ncccn1)N(Cc1ccc(C(F)(F)F)cn1)C(=O)c1ccc(N=C(N)NCCO)nc1 (stereo not shown) [Compound 19] | – | 0.8 | – | – | –
CNC(=Nc1ccc(C(=O)N(Cc2ccc(C(F)(F)F)cn2)C(C)c2ncccn2)cn1)NC (stereo not shown) [Compound 21, 6-((bis(methyl-amino)methylene)amino)-N-(1-(pyrimidin-2-yl)ethyl)-N-((5-(trifluoromethyl)pyridin-2-yl)methyl)nicotinamide] | – | 4.7 | – | – | –
COC=C(N)Nc1ccc(C(=O)N(Cc2ccc(C(F)(F)F)cn2)C(C)c2ncccn2)cn1 (stereo not shown) [Compound 23] | – | 5.8 | – | – | –
CNC(N)=Nc1ccc(C(=O)N(Cc2ccc(C(F)(F)F)cn2)C(C)c2cccc(C)c2)cn1 (stereo not shown) [Compound 31, 6-((amino(methylamino)methylene)amino)-N-(1-(m-tolyl)ethyl)-N-((5-(trifluoromethyl)pyridin-2-yl)methyl)nicotinamide] | 0.302 | 3.4 | 3.36 | – | –
CNC(N)=Nc1ccc(C(=O)N(Cc2ccc(C(F)(F)F)cn2)C(C)c2ccccc2)cn1 (stereo not shown) [Compound 32] | 0.114 | 1.5 | 1.89 | – | –
CNC(N)=Nc1ccc(C(=O)N(Cc2ccc(C(F)(F)F)cn2)C(C)C2CC2)cn1 (stereo not shown) [Compound 33] | 0.279 | 1 | 4 | – | –
CNC(N)=Nc1ccc(C(=O)N(Cc2ccc(C(F)(F)F)cn2)C(C)c2ccccn2)cn1 (stereo not shown) [Compound 34] | 0.182 | 1.8 | 3.48 | – | –
CNC(N)=Nc1ccc(C(=O)N(Cc2ccc(C(F)(F)F)cn2)C2CCC2)cn1 [Compound 35] | – | 2 | – | – | –
CNC(N)=Nc1ccc(C(=O)N(Cc2ccccc2)Cc2ccc(C(F)(F)F)cn2)cn1 [Compound 36] | 0.521 | 3.6 | 5.36 | – | –
CNC(N)=Nc1ccc(C(=O)N(Cc2ccc(C(F)(F)F)cn2)C(C)c2ccc(F)cc2)cn1 (stereo not shown) [Compound 37] | 0.454 | – | 2.7 | – | –

Structure (SMILES) | IC50 (HCT116 MTAP KO; Homo sapiens, HCT-116, 144 h) [µM] | IC50 (PRMT5-MTA) [nM] | IC50 (HCT116-WT; 144 h) [µM] | IC50 (HCT116 MTAP KO) [µM] | IC50 (HCT116-WT) [µM]
CNC(N)=Nc1ccc(C(=O)N(Cc2ccc(C(F)(F)F)cn2)C(C)c2ccncc2)cn1 (stereo not shown) [Compound 39] | – | 1.2 | – | – | –
CNC(N)=Nc1ccc(C(=O)N(Cc2ccc(C(F)(F)F)cn2)C(C)c2ccc(C)cc2)cn1 (stereo not shown) [Compound 40] | – | 1.9 | – | – | –
CNC(N)=Nc1ccc(C(=O)N(Cc2ccc(C(F)(F)F)cn2)C(C)c2ccccc2C)cn1 (stereo not shown) [Compound 41] | 0.931 | 2.5 | 3.71 | – | –
CNC(N)=Nc1ccc(C(=O)N(Cc2ccc(C(F)(F)F)cn2)C(C)c2ccccc2F)cn1 (stereo not shown) [Compound 42] | 0.061 | 1.6 | 0.982 | – | –
CNC(N)=Nc1ccc(C(=O)N(Cc2ccc(C(F)(F)F)cn2)C(C)c2cccc3ccccc23)cn1 (stereo not shown) [Compound 43] | – | 1.6 | – | – | –
CNC(N)=Nc1ccc(C(=O)N(Cc2ccc(C(F)(F)F)cn2)C2CCCc3cccnc32)cn1 (stereo not shown) [Compound 44] | – | 2.6 | – | 0.017 | 0.493
CNC(N)=Nc1ccc(C(=O)N(Cc2ccc(C(F)(F)F)cn2)c2cccc3cccnc23)cn1 [Compound 45, 6-((amino(methylamino)methylene)amino)-N-(quinolin-8-yl)-N-((5-(trifluoromethyl)pyridin-2-yl)methyl)nicotinamide] | 0.024 | 1 | 0.275 | – | –
CNC(N)=Nc1ccc(C(=O)N(Cc2ccc(C(F)(F)F)cn2)c2cccc3ccccc23)cn1 [Compound 47] | 0.031 | 1.4 | 0.593 | – | –
CNC(N)=Nc1ccc(C(=O)N(Cc2ccc(C(F)(F)F)cn2)c2cccc3nccnc23)cn1 [Compound 50] | 0.025 | 1.7 | 0.512 | – | –
CNC(N)=Nc1ccc(C(=O)N(Cc2ccc(C(F)(F)F)cn2)c2csc3cccnc23)cn1 [Compound 51] | 0.051 | 2.6 | 0.618 | – | –
CNC(N)=Nc1ccc(C(=O)N(C)C2COc3cc(C(F)(F)F)ccc32)cn1 (stereo not shown) [Compound 54, 6-((amino(methylamino)methylene)amino)-N-methyl-N-(6-(trifluoromethyl)-2,3-dihydrobenzofuran-3-yl)nicotinamide] | – | 2 | – | – | –
CNC(N)=Nc1ccc(C(=O)N(C)C2COc3cc(-c4ccncc4)ccc32)cn1 (stereo not shown) [Compound 55, 6-((amino(methylamino)methylene)amino)-N-methyl-N-(6-(pyridin-4-yl)-2,3-dihydrobenzofuran-3-yl)nicotinamide] | – | 5 | – | – | –
CNC(N)=Nc1ccc(C(=O)N(Cc2ccc(C(F)(F)F)cn2)n2ccc3cccnc32)cn1 [Compound 56, 6-((amino(methylamino)methylene)amino)-N-(1H-pyrrolo[2,3-b]pyridin-1-yl)-N-[(5-(trifluoromethyl)pyridin-2-yl)methyl)nicotinamide] | 0.036 | 5.8 | 0.536 | – | –
CNC(N)=Nc1ccc(C(=O)N2C[C@@H](C)CC[C@@H]2c2ccc(F)cc2)cn1 [Compound 57, 2-(5-((2R,5S)-2-(4-fluorophenyl)-5-methylpiperidine-1-carbonyl)pyridin-2-yl)-1-methyl guanidine] | – | 1.8 | – | – | –
CNC(N)=Nc1ccc(C(=O)N(Cc2ccc(C(F)(F)F)cn2)C2CCCc3cccnc32)cn1 (stereo not shown) [Compound 59] | 0.018 | – | 0.413 | – | –
CNC(N)=Nc1ccc(C(=O)N(Cc2ccc(C(F)(F)F)cn2)C(C)c2ccccc2OC(F)(F)F)cn1 (stereo not shown) [Compound 60] | 0.933 | 2.8 | 2.95 | – | –
CNC(N)=Nc1ccc(C(=O)N(Cc2ccc(-c3cncs3)cn2)[C@H](C)c2ccccc2F)cn1 [Compound 72] | 0.054 | – | 0.696 | – | –
CNC(N)=Nc1ccc(C(=O)N(Cc2ccc3sc(NC)nc3c2)[C@H](C)c2ccccc2F)cn1 [Compound 80] | – | 7.8 | – | – | –
CCC(c1ccccc1F)N(Cc1ccc(C(F)(F)F)cn1)C(=O)c1ccc(N=C(N)NC)nc1 (stereo not shown) [Compound 84] | 0.025 | – | 0.428 | – | –
CNC(N)=Nc1ccc(C(=O)N(Cc2cccnc2)[C@H](C)c2ccccc2F)cn1 [Compound 100] | – | 7.6 | – | – | –
CNC(N)=Nc1ccc(C(=O)N(CC2CCCCO2)C(C)c2ccccc2F)cn1 (stereo not shown) [Compound 103] | – | 4.2 | – | – | –
CN/C(N)=N\c1ccc(C(=O)N(Cc2ccc(C(F)(F)F)cn2)C(C)c2cccc3nccnc23)cn1 (stereo not shown) [Compound 120, (Z)-6-((amino(methylamino)methylene)amino)-N-(1-(quinoxalin-5-yl)ethyl)-N-((5-(trifluoromethyl)pyridin-2-yl)methyl)nicotinamide] | – | 1 | – | – | –
CN/C(N)=N\c1ccc(C(=O)N(Cc2ccc(C(F)(F)F)cn2)C2CCCc3nccnc32)cn1 (stereo not shown) [Compound 122, (Z)-6-((amino(methylamino)methylene)amino)-N-(5,6,7,8-tetrahydroquinoxalin-5-yl)-N -((5-(trifluoromethyl)pyridin-2-yl)methyl)nicotinamide] | 0.192 | – | 1.93 | – | –
CNC(N)=Nc1ccc(C(=O)N(Cc2ccc(C(F)(F)F)cc2F)C(C)c2cccc3nccnc23)cn1 (stereo not shown) [compound 121] | – | 4.4 | – | – | –
